Reference: patent US6737383B1, “Herbicidal oxadiazolidines” (priority 1999, dated 2004)

Key:
morningglory = experiment: Test B pre/postemergence morningglory; assay type: in vivo, Ipomoea hederacea
Procedure, shortened: (§1)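 Herbicidal effect was estimated by eye on a ten-point control scale after plants spent twelve to sixteen days in a greenhouse following soil or foliar treatment. Foliar sprays targeted plants at one to four leaves; all doses were formulated in a non-phytotoxic solvent with surfactant.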

wild oat = experiment: Test B pre/postemergence wild oat; assay type: in vivo, Avena fatua
Procedure, shortened: as §1

surinam grass = experiment: Test B pre/postemergence surinam grass; assay type: in vivo, Brachiaria decumbens
Procedure, shortened: as §1

purple nutsedge = experiment: Test B pre/postemergence purple nutsedge; assay type: in vivo, Cyperus rotundus
Procedure, shortened: as §1

cocklebur = experiment: Test B pre/postemergence cocklebur; assay type: in vivo, Xanthium strumarium
Procedure, shortened: as §1

crabgrass = experiment: Test B pre/postemergence crabgrass; assay type: in vivo, Digitaria sanguinalis
Procedure, shortened: as §1

corn = experiment: Test B pre/postemergence corn; assay type: in vivo, Zea mays
Procedure, shortened: as §1

velvetleaf = experiment: Test B pre/postemergence velvetleaf; assay type: in vivo, Abutilon theophrasti
Procedure, shortened: as §1

giant foxtail = experiment: Test B pre/postemergence giant foxtail; assay type: in vivo, Setaria faberii
Procedure, shortened: as §1

wheat = experiment: Test B pre/postemergence wheat; assay type: in vivo, Triticum aestivum
Procedure, shortened: as §1

rice = experiment: Test B flood test rice; assay type: in vivo, Oryza sativa
Procedure, shortened: (§2)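 Each value is a visual injury score relative to controls, with 10 meaning complete control and 0 no effect. Evaluation took place twelve to sixteen days after the 2-leaf-stage plants were treated and kept in the greenhouse.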

blackgrass = experiment: Test B pre/postemergence blackgrass; assay type: in vivo, Alopecurus myosuroides
Procedure, shortened: as §1

duck salad = experiment: Test B flood test duck salad; assay type: in vivo, Heteranthera limosa
Procedure, shortened: as §2

bamyardgrass = experiment: Test B flood test barnyardgrass; assay type: in vivo, Echinochloa crus-galli
Procedure, shortened: as §2

soybean = experiment: Test B pre/postemergence soybean; assay type: in vivo, Glycine max
Procedure, shortened: as §1

smallflower flatsedge = experiment: Test B flood test smallflower flatsedge; assay type: in vivo, Cyperus difformis
Procedure, shortened: as §2

bedstraw = experiment: Test B pre/postemergence bedstraw; assay type: in vivo, Galium aparine
Procedure, shortened: as §1

[1] = Postemergence, Rate 62 g/ha, scale 0 to 10, 0 is no effect, 10 is complete control
[2] = Postemergence, Rate 250 g/ha, scale 0 to 10, 0 no effect, 10 complete control
[3] = Postemergence, Rate 1000 g/ha, scale 0 to 10 (0 no effect, 10 complete control)
[4] = Preemergence, Rate 31 g/ha, visual rating, scale 0 to 10 (0 no effect, 10 complete control)
[5] = Preemergence, Rate 62 g/ha, scale 0 to 10, 0 is no effect, 10 is complete control
[6] = Preemergence, Rate 125 g/ha, scale 0 to 10 (0 no effect, 10 complete control)
[7] = Preemergence, Rate 250 g/ha, scale of 0 to 10 where 0 is no effect and 10 is complete control
[8] = Preemergence, Rate 500 g/ha, scale 0 (no effect) to 10 (complete control)
[9] = Rate 31 g/ha, Postemergence, scale 0 to 10
[10] = Rate 125 g/ha, Postemergence, scale 0 to 10, 0 no effect, 10 complete control
[11] = Rate 500 g/ha, Postemergence, 0 to 10 scale (0 no effect, 10 complete control)
[12] = Rate 1000 g/ha, Preemergence, scale 0 to 10 (0 no effect, 10 complete control)
[13] = Rate 31 g/ha, Postemergence section (flood test species), scale 0 to 10
[14] = Rate 125 g/ha, Postemergence section (flood test species), scale 0 to 10, 0 no effect, 10 complete control
[15] = Rate 500 g/ha, Postemergence section of Table B, 0 to 10 scale (0 no effect, 10 complete control)
[16] = flood test, listed under Postemergence, Rate 250 g/ha, scale 0 to 10, 0 no effect, 10 complete control

Cc1ccccc1-n1c(=O)on(C(=O)N(c2ccc(F)cc2)C(C)C)c1=O [Compound 4]
Morningglory plant response rating (morningglory; [1]): 0 | Morningglory plant response rating (morningglory; [2]): 3 | Morningglory plant response rating (morningglory; [3]): 3 | Morningglory plant response rating (morningglory; [4]): 0 | Plant response rating, Morningglory (morningglory; [5]): 0 | Plant response rating, Morningglory (morningglory; [6]): 0 | Plant response rating, Morningglory (morningglory; [7]): 0 | Morningglory plant response rating (morningglory; [8]): 0 | Morningglory plant response rating (morningglory; [9]): 0 | Morningglory plant response rating (morningglory; [10]): 2 | Morningglory plant response rating (morningglory; [11]): 3 | Plant response rating, Morningglory (morningglory; [12]): 0 | Wild oats plant response rating (wild oat; [1]): 0 | Wild oats plant response rating (wild oat; [2]): 0 | Wild oats plant response rating (wild oat; [3]): 0 | Wild oats plant response rating (wild oat; [4]): 0 | Plant response rating, Wild oats (wild oat; [6]): 0 | Plant response rating, Wild oats (wild oat; [7]): 4 | Wild oats plant response rating (wild oat; [8]): 7 | Wild oats plant response rating (wild oat; [10]): 0 | Plant response rating, Wild oats (wild oat; [12]): 8 | B. signalgrass plant response rating (surinam grass; [1]): 0 | B. signalgrass plant response rating (surinam grass; [2]): 0 | B. signalgrass plant response rating (surinam grass; [3]): 4 | B. signalgrass plant response rating (surinam grass; [4]): 0 | Plant response rating, B. signalgrass (surinam grass; [5]): 0 | Plant response rating, B. signalgrass (surinam grass; [6]): 7 | Plant response rating, B. signalgrass (surinam grass; [7]): 8 | B. signalgrass plant response rating (surinam grass; [8]): 9 | B. signalgrass plant response rating (surinam grass; [9]): 0 | B. signalgrass plant response rating (surinam grass; [10]): 0 | B. signalgrass plant response rating (surinam grass; [11]): 2 | Plant response rating, B. signalgrass (surinam grass; [12]): 10 | Nutsedge plant response rating (purple nutsedge; [1]): 0 | Nutsedge plant response rating (purple nutsedge; [2]): 0 | Nutsedge plant response rating (purple nutsedge; [3]): 0 | Nutsedge plant response rating (purple nutsedge; [4]): 0 | Plant response rating, Nutsedge (purple nutsedge; [5]): 0 | Plant response rating, Nutsedge (purple nutsedge; [6]): 0 | Plant response rating, Nutsedge (purple nutsedge; [7]): 0 | Nutsedge plant response rating (purple nutsedge; [8]): 0 | Nutsedge plant response rating (purple nutsedge; [9]): 0 | Nutsedge plant response rating (purple nutsedge; [10]): 0 | Nutsedge plant response rating (purple nutsedge; [11]): 0 | Plant response rating, Nutsedge (purple nutsedge; [12]): 0 | Cocklebur plant response rating (cocklebur; [1]): 0 | Cocklebur plant response rating (cocklebur; [2]): 6 | Cocklebur plant response rating (cocklebur; [3]): 8 | Cocklebur plant response rating (cocklebur; [4]): 0 | Plant response rating, Cocklebur (cocklebur; [5]): 0 | Plant response rating, Cocklebur (cocklebur; [6]): 0 | Plant response rating, Cocklebur (cocklebur; [7]): 0 | Cocklebur plant response rating (cocklebur; [8]): 0 | Cocklebur plant response rating (cocklebur; [9]): 0 | Cocklebur plant response rating (cocklebur; [10]): 2 | Cocklebur plant response rating (cocklebur; [11]): 6 | Plant response rating, Cocklebur (cocklebur; [12]): 0 | Crabgrass plant response rating (crabgrass; [1]): 0 | Crabgrass plant response rating (crabgrass; [2]): 8 | Crabgrass plant response rating (crabgrass; [3]): 8 | Crabgrass plant response rating (crabgrass; [4]): 3 | Plant response rating, Crabgrass (crabgrass; [5]): 3 | Plant response rating, Crabgrass (crabgrass; [6]): 10 | Plant response rating, Crabgrass (crabgrass; [7]): 10 | Crabgrass plant response rating (crabgrass; [8]): 10 | Crabgrass plant response rating (crabgrass; [9]): 0 | Crabgrass plant response rating (crabgrass; [10]): 5 | Crabgrass plant response rating (crabgrass; [11]): 8 | Plant response rating, Crabgrass (crabgrass; [12]): 10 | Corn plant response rating (corn; [1]): 0 | Corn plant response rating (corn; [2]): 0 | Corn plant response rating (corn; [3]): 0 | Corn plant response rating (corn; [4]): 0 | Plant response rating, Corn (corn; [5]): 0 | Plant response rating, Corn (corn; [6]): 0 | Plant response rating, Corn (corn; [7]): 0 | Corn plant response rating (corn; [8]): 0 | Corn plant response rating (corn; [9]): 0 | Corn plant response rating (corn; [10]): 0 | Corn plant response rating (corn; [11]): 0 | Plant response rating, Corn (corn; [12]): 0 | Velvetleaf plant response rating (velvetleaf; [1]): 0 | Velvetleaf plant response rating (velvetleaf; [2]): 3 | Velvetleaf plant response rating (velvetleaf; [3]): 7 | Velvetleaf plant response rating (velvetleaf; [4]): 0 | Plant response rating, Velvetleaf (velvetleaf; [5]): 0 | Plant response rating, Velvetleaf (velvetleaf; [6]): 0 | Plant response rating, Velvetleaf (velvetleaf; [7]): 0 | Velvetleaf plant response rating (velvetleaf; [8]): 0 | Velvetleaf plant response rating (velvetleaf; [10]): 3 | Plant response rating, Velvetleaf (velvetleaf; [12]): 0 | Giant foxtail plant response rating (giant foxtail; [1]): 0 | Giant foxtail plant response rating (giant foxtail; [2]): 3 | Giant foxtail plant response rating (giant foxtail; [3]): 6 | Giant foxtail plant response rating (giant foxtail; [4]): 8 | Plant response rating, Giant foxtail (giant foxtail; [5]): 9 | Plant response rating, Giant foxtail (giant foxtail; [6]): 9 | Plant response rating, Giant foxtail (giant foxtail; [7]): 10 | Giant foxtail plant response rating (giant foxtail; [8]): 10 | Giant foxtail plant response rating (giant foxtail; [9]): 0 | Giant foxtail plant response rating (giant foxtail; [10]): 5 | Giant foxtail plant response rating (giant foxtail; [11]): 4 | Plant response rating, Giant foxtail (giant foxtail; [12]): 10 | Wheat plant response rating (wheat; [1]): 0 | Wheat plant response rating (wheat; [2]): 0 | Wheat plant response rating (wheat; [3]): 0 | Wheat plant response rating (wheat; [4]): 0 | Plant response rating, Wheat (wheat; [5]): 0 | Plant response rating, Wheat (wheat; [6]): 0 | Plant response rating, Wheat (wheat; [7]): 0 | Wheat plant response rating (wheat; [8]): 0 | Wheat plant response rating (wheat; [10]): 0 | Plant response rating, Wheat (wheat; [12]): 0 | Rice plant response rating (rice; [1]): 0 | Rice plant response rating (rice; [3]): 0 | Rice plant response rating (rice; [13]): 0 | Rice plant response rating (rice; [14]): 0 | Rice plant response rating (rice; [15]): 0 | Rice plant response rating (rice; [16]): 0 | Blackgrass plant response rating (blackgrass; [1]): 0 | Blackgrass plant response rating (blackgrass; [2]): 5 | Blackgrass plant response rating (blackgrass; [3]): 6 | Blackgrass plant response rating (blackgrass; [4]): 0 | Plant response rating, Blackgrass (blackgrass; [5]): 0 | Plant response rating, Blackgrass (blackgrass; [6]): 6 | Plant response rating, Blackgrass (blackgrass; [7]): 8 | Blackgrass plant response rating (blackgrass; [8]): 8 | Blackgrass plant response rating (blackgrass; [9]): 0 | Blackgrass plant response rating (blackgrass; [10]): 4 | Blackgrass plant response rating (blackgrass; [11]): 6 | Plant response rating, Blackgrass (blackgrass; [12]): 10 | Ducksalad plant response rating (duck salad; [1]): 0 | Ducksalad plant response rating (duck salad; [3]): 3 | Ducksalad plant response rating (duck salad; [13]): 0 | Ducksalad plant response rating (duck salad; [14]): 0 | Ducksalad plant response rating (duck salad; [15]): 2 | Ducksalad plant response rating (duck salad; [16]): 2 | Barnyardgrass plant response rating (bamyardgrass; [1]): 0 | Barnyardgrass plant response rating (bamyardgrass; [3]): 4 | Barnyardgrass plant response rating (bamyardgrass; [13]): 0 | Barnyardgrass plant response rating (bamyardgrass; [14]): 0 | Barnyardgrass plant response rating (bamyardgrass; [15]): 4 | Barnyardgrass plant response rating (bamyardgrass; [16]): 3 | Soybean plant response rating (soybean; [1]): 2 | Soybean plant response rating (soybean; [2]): 4 | Soybean plant response rating (soybean; [3]): 5 | Soybean plant response rating (soybean; [4]): 0 | Plant response rating, Soybean (soybean; [5]): 0 | Plant response rating, Soybean (soybean; [6]): 0 | Plant response rating, Soybean (soybean; [7]): 0 | Soybean plant response rating (soybean; [8]): 0 | Soybean plant response rating (soybean; [10]): 4 | Plant response rating, Soybean (soybean; [12]): 1 | S. Flatsedge plant response rating (smallflower flatsedge; [1]): 0 | S. Flatsedge plant response rating (smallflower flatsedge; [3]): 4 | S. Flatsedge plant response rating (smallflower flatsedge; [14]): 0 | S. Flatsedge plant response rating (smallflower flatsedge; [16]): 2 | Bedstraw plant response rating (bedstraw; [1]): 0 | Bedstraw plant response rating (bedstraw; [2]): 7 | Bedstraw plant response rating (bedstraw; [3]): 8 | Bedstraw plant response rating (bedstraw; [4]): 0 | Plant response rating, Bedstraw (bedstraw; [5]): 0 | Plant response rating, Bedstraw (bedstraw; [6]): 1 | Plant response rating, Bedstraw (bedstraw; [7]): 4 | Bedstraw plant response rating (bedstraw; [8]): 4 | Bedstraw plant response rating (bedstraw; [9]): 0 | Bedstraw plant response rating (bedstraw; [10]): 5 | Bedstraw plant response rating (bedstraw; [11]): 7 | Plant response rating, Bedstraw (bedstraw; [12]): 6
